# Experimental data taken from the supplement of paper PMC11451515.
# System: P12-Ichikawa
# Test: cell viability relative to DMSO control; higher = less cytotoxic
# Conditions: 48 h
# Procedure, shortened: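 Viability, reported as a per-plate percentage of DMSO wells with cell-free wells as background, came from CellTiter-Glo One luminescence. Reading took place after 48 h at 37°C. Before that, NOMO1 or SEM (500 cells/well) or P12-Ichikawa (1000 cells/well) leukemia cells, adapted for at least four passages in each medium, were seeded in 1536-well plates (5 μl) and pin-dosed with library compounds in DMSO, 47 μM to 0.79 nM over 11 threefold points.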
# [1] = HPLM + 10% dialyzed FBS, 0.000781 µM
# [2] = HPLM + 10% dialyzed FBS, 0.00234 µM
# [3] = HPLM + 10% dialyzed FBS, 0.00702 µM
# [4] = HPLM + 10% dialyzed FBS, 0.0211 µM
# [5] = HPLM + 10% dialyzed FBS, 0.0632 µM
# [6] = HPLM + 10% dialyzed FBS, 0.19 µM
# [7] = HPLM + 10% dialyzed FBS, 0.569 µM
# [8] = HPLM + 10% dialyzed FBS, 1.71 µM
# [9] = HPLM + 10% dialyzed FBS, 5.12 µM
# [10] = HPLM + 10% dialyzed FBS, 15.4 µM
# [11] = HPLM + 10% dialyzed FBS, 46.1 µM
# [12] = RPMI 5 mM glucose + 10% FBS, 0.000781 µM
# [13] = RPMI 5 mM glucose + 10% FBS, 0.00234 µM
# [14] = RPMI 5 mM glucose + 10% FBS, 0.00702 µM
# [15] = RPMI 5 mM glucose + 10% FBS, 0.0211 µM
# [16] = RPMI 5 mM glucose + 10% FBS, 0.0632 µM
# [17] = RPMI 5 mM glucose + 10% FBS, 0.19 µM
# [18] = RPMI 5 mM glucose + 10% FBS, 0.569 µM
# [19] = RPMI 5 mM glucose + 10% FBS, 1.71 µM
# [20] = RPMI 5 mM glucose + 10% FBS, 5.12 µM
# [21] = RPMI 5 mM glucose + 10% FBS, 15.4 µM
# [22] = RPMI 5 mM glucose + 10% FBS, 46.1 µM
# [23] = RPMI 5 mM glucose + 10% dialyzed FBS, 0.000781 µM
# [24] = RPMI 5 mM glucose + 10% dialyzed FBS, 0.00234 µM
# [25] = RPMI 5 mM glucose + 10% dialyzed FBS, 0.00702 µM
# [26] = RPMI 5 mM glucose + 10% dialyzed FBS, 0.0211 µM
# [27] = RPMI 5 mM glucose + 10% dialyzed FBS, 0.0632 µM
# [28] = RPMI 5 mM glucose + 10% dialyzed FBS, 0.19 µM
# [29] = RPMI 5 mM glucose + 10% dialyzed FBS, 0.569 µM
# [30] = RPMI 5 mM glucose + 10% dialyzed FBS, 1.71 µM
# [31] = RPMI 5 mM glucose + 10% dialyzed FBS, 5.12 µM
# [32] = RPMI 5 mM glucose + 10% dialyzed FBS, 15.4 µM
# [33] = RPMI 5 mM glucose + 10% dialyzed FBS, 46.1 µM
Structure (SMILES),cell viability [1] [%],cell viability [2] [%],cell viability [3] [%],cell viability [4] [%],cell viability [5] [%],cell viability [6] [%],cell viability [7] [%],cell viability [8] [%],cell viability [9] [%],cell viability [10] [%],cell viability [11] [%],cell viability [12] [%],cell viability [13] [%],cell viability [14] [%],cell viability [15] [%],cell viability [16] [%],cell viability [17] [%],cell viability [18] [%],cell viability [19] [%],cell viability [20] [%],cell viability [21] [%],cell viability [22] [%],cell viability [23] [%],cell viability [24] [%],cell viability [25] [%],cell viability [26] [%],cell viability [27] [%],cell viability [28] [%],cell viability [29] [%],cell viability [30] [%],cell viability [31] [%],cell viability [32] [%],cell viability [33] [%]
CN(C)CCc1c[nH]c2ccc(C[C@H]3COC(=O)N3)cc12,98.4,109,109,115,105,105,116,112,88.7,13.7,9.01,105,101,112,104,111,117,116,102,84.1,36.2,6.37,108,100,105,111,106,111,104,112,80.2,38.2,7.95
N[S+](=O)([O-])c1cc(Cl)c(Cl)c([S+](N)(=O)[O-])c1,116,108,112,112,107,105,92.3,102,108,101,97.9,100,109,109,113,100,103,106,97.3,106,99.8,100,97.5,105,97,101,104,101,105,97.2,101,98,89.8
CC(C)(C)C(=O)OCOP(=O)(COCCn1cnc2c(N)ncnc21)OCOC(=O)C(C)(C)C,97.4,110,103,103,73.1,73.5,70.2,50.1,27.4,19,29.2,94.7,104,92.3,94.6,69.5,72.9,52.6,29.9,15,10.7,19.6,89.3,96.3,94.7,86.4,82.1,65,61.6,46.7,28.8,28.8,27.4
C1CCC(C(CC2CCCCN2)C2CCCCC2)CC1 (configuration not stated),115,117,124,119,128,124,129,127,119,123,88.3,118,123,124,115,128,134,126,119,131,106,54.2,109,127,107,122,123,124,122,126,117,115,67.7
